Measured values taken from PubChem BioAssay AID248 (DTP/NCI, 2004).
“And” between values parts separate entries of the source, which are not always exact repeats. Equal values may be shown once. Toxic doses and inconclusive results are not listed.

Tested on: L1210 leukemia ip in BDF1 mice, survival T/C
Assay: NCI In Vivo Anticancer Drug Screen. Data for tumor model L1210 Leukemia (intraperitoneal) in B6D2F1 (BDF1) mice
Settings: endpoint: mean survival time, higher = longer survival
In short: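 Each compound was tested against a transplantable tumor grown in mice. The endpoint was survival, with treated animals benchmarked against vehicle controls as a simple ratio.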

[1] = dose: 100.0 mg/kg/injection, schedule: Q01DX009 (ip), vehicle: Klucel (hydroxypropylcellulose) (HPC)
[2] = dose: 100.0 mg/kg/injection, schedule: Q04DX003 (ip), vehicle: Klucel (hydroxypropylcellulose) (HPC)
[3] = dose: 200.0 mg/kg/injection, schedule: Q01DX009 (ip), vehicle: Klucel (hydroxypropylcellulose) (HPC)
[4] = dose: 200.0 mg/kg/injection, schedule: Q04DX003 (ip), vehicle: Klucel (hydroxypropylcellulose) (HPC)
[5] = dose: 400.0 mg/kg/injection, schedule: Q01DX009 (ip), vehicle: Klucel (hydroxypropylcellulose) (HPC)
[6] = dose: 400.0 mg/kg/injection, schedule: Q04DX003 (ip), vehicle: Klucel (hydroxypropylcellulose) (HPC)

CNC(=O)NNC(=O)CNC(=O)Nc1cccc(C(F)(F)F)c1
T/C (dose: 12.5 mg/kg/injection, schedule: Q01DX009 (ip), vehicle: Klucel (hydroxypropylcellulose) (HPC)): 94 % of control | T/C (dose: 25.0 mg/kg/injection, schedule: Q01DX009 (ip), vehicle: Klucel (hydroxypropylcellulose) (HPC)): 102 % of control | T/C (dose: 50.0 mg/kg/injection, schedule: Q01DX009 (ip), vehicle: Klucel (hydroxypropylcellulose) (HPC)): 98 % of control

C#Cc1ccc([N+](=O)[O-])cc1
T/C [1]: 95 % of control | T/C [2]: 88 % of control | T/C [3]: 94 % of control | T/C [4]: 91 % of control | T/C [5]: 95 % of control | T/C [6]: 93 % of control

c1ccc(C2=C(c3ccccc3)CC2)cc1
T/C (dose: 50.0 mg/kg/injection, schedule: Q01DX001 (ip), vehicle: Klucel (hydroxypropylcellulose) (HPC)): 104 % of control | T/C (dose: 100.0 mg/kg/injection, schedule: Q01DX001 (ip), vehicle: Klucel (hydroxypropylcellulose) (HPC)): 98 % of control | T/C (dose: 200.0 mg/kg/injection, schedule: Q01DX001 (ip), vehicle: Klucel (hydroxypropylcellulose) (HPC)): 108 % of control

CCCCCNC(=O)CCC
T/C [1]: 108 % of control | T/C [2]: 96 % of control | T/C [3]: 108 % of control | T/C [4]: 107 % of control | T/C [5]: 106 % of control | T/C [6]: 95 % of control

CC(C)(C)N1OC2(CCCCC2)n2c(=O)c3ccccc3c(=O)n2C1c1ccccc1 (stereo not drawn)
T/C (dose: 100.0 mg/kg/injection, schedule: Q04DX002 (ip), vehicle: saline with Tween-80): 97 % of control | T/C (dose: 200.0 mg/kg/injection, schedule: Q04DX002 (ip), vehicle: saline with Tween-80): 90 % of control | T/C (dose: 400.0 mg/kg/injection, schedule: Q04DX002 (ip), vehicle: saline with Tween-80): 108 % of control

CCOP(=S)(S)OCC
T/C (dose: 100.0 mg/kg/injection, schedule: Q04DX003 (ip), vehicle: saline): 97 % of control and 98 % of control | T/C (dose: 200.0 mg/kg/injection, schedule: Q04DX003 (ip), vehicle: saline): 95 % of control and 93 % of control | T/C (dose: 400.0 mg/kg/injection, schedule: Q04DX003 (ip), vehicle: saline): 98 % of control

CN(C)c1ccc(/C=C2\C=Cc3ccccc32)c(F)c1
T/C [1]: 98 % of control | T/C [2]: 96 % of control | T/C [3]: 101 % of control | T/C [4]: 93 % of control | T/C [5]: 92 % of control | T/C [6]: 96 % of control

CCOC(=O)C1(NC(=O)N(CCCl)N=O)CCCCC1
T/C (dose: 16.0 mg/kg/injection, schedule: Q01DX001 (ip), vehicle: other): 97 % of control | T/C (dose: 31.0 mg/kg/injection, schedule: Q01DX001 (ip), vehicle: other): 106 % of control | T/C (dose: 125.0 mg/kg/injection, schedule: Q01DX001 (ip), vehicle: other): 188 % of control and 220 % of control | T/C (dose: 250.0 mg/kg/injection, schedule: Q01DX001 (ip), vehicle: other): 296 % of control and 317 % of control | T/C (dose: 375.0 mg/kg/injection, schedule: Q01DX001 (ip), vehicle: other): 216 % of control | T/C (dose: 500.0 mg/kg/injection, schedule: Q01DX001 (ip), vehicle: other): 194 % of control and 322 % of control | T/C (dose: 750.0 mg/kg/injection, schedule: Q01DX001 (ip), vehicle: other): 331 % of control | T/C (dose: 1000.0 mg/kg/injection, schedule: Q01DX001 (ip), vehicle: other): 295 % of control
